The source of these data is patent publication US6979447B2, “Immunomodulation and effect on cell processes relating to serotonin family receptors” (Philadelphia Health and Education Corporation, priority 2001, dated 2005).

pIC50: −log10 of the molar value.

In experiment [1] the test system is human lymphocytes. Nature of the experiment: Viable cell counts (trypan blue) during ConA stimulation of human lymphocytes. It counts as cell-based. The settings on record: ConA 10 μg/ml, manual trypan blue counts, FIG. 11. The method, then: FIG. 11 is a diagram depicting the effect of a 5HT type 1 receptor antagonist and a 5HT type 2 receptor antagonist on the cell numbers occurring during the mitogenic stimulation of human lymphocyte activation. The cells were stimulated with 10 μg/ml ConA. The cells were repurified on a Ficoll gradient prior to addition of the inhibitor. Trypan blue exclusion was used to count the viable cells.
To further assess the effects of propanolol (a general 5-HTR 1 antagonist) and risperidone (a general 5-HTR 2 antagonist) on the mitogenically stimulated lymphocyte culture, the number of viable cells were manually counted as the assay progressed. If the cells were not stimulated, there was no detectable change in the number of viable cells. When the cells were stimulated with ConA, a small lag period was observed and the beginning of the growth phase compared to the stimulation response curve observed in the absence of the inhibitor. […] Apparently, there is no decrease or increase compared with the starting cell numbers. It is unclear whether or not this is due too anergy, an inability to initiate the activation pathway, or both. […] Thus, based on the data presented here, the classes of antagonists that inhibit the type 2 serotonin receptors appear to be rate limiting for the lymphocyte activation processes.

Experiment [2] relates to allogeneic CTL response to P815 cells. In words: Murine allograft model, CTL killing of P815 target cells by splenocytes. Format: in vivo, C57BL/6J mice. The settings on record: tail vein bolus 200 μg/injection on days 6 and 8, sacrificed day 14, FIG. 13. The method, then:
The in vivo validation screen used was an art-recognized murine allogeneic rejection model as described in Zhan et al., 2000. For this assay, a complete MHC miss-match system was employed wherein 5×10^6 P815 cells ([H-2^d] DBA/2 mastocytoma) were injected into the peritoneal cavity of C57BL/6J (H-2^b) mice on day 0 of the experiment. These mice typically generate a strong cytotoxic T lymphocyte (CTL) reaction in response to P815 cells. Following the initial P815 cell inoculation, the mice were allowed to develop a CTL response (this usually takes about 10-14 days). […] Mice were then sacrificed on day 14 of the experiment as indicated in the figures; and the allogeneic CTL response was assayed as described previously (Tretiakova et al., 2000, Nature Biotechnology 18:984-988). The primary spleen cells from the treated and untreated animals were used in the direct CTL readout. Freshly obtained primary spleen cells were incubated with the [^3H] labeled target cells (P815 cells) at 100:1, 50:1, 25:1, and 12.5:1 ratios for 3.5 hours at 37° C. and harvested using a PHD harvester. The percentage of specific killing was determined using the formula % kill=(S−E)/S, where S is the amount of the DNA retained by the target cells in the absence of the effector cells and E is the amount of retained DNA in the presence of the effector cells (expressed in counts per minute; cpm).
This is an art-recognized model of allograft […] rejection based on that described by […]. (2000). In this model, there is a complete MHC mismatch between the P815 cells (H-2^d) and the C57BL6 mouse (H-2^b), thus ensuring an aggressive immune response. The data disclosed in FIG. 13, depicts results of experiments that included 6 treatment groups, each group consisting of three mice. Each mouse received 5×10^6 P815 cells injected into the peritoneal cavity on day 0 of the study. The first group was an untreated control group, which was used to establish the baseline response of the mice against the allogeneic stimulus. These mice, without any further treatments, were sacrificed, as were the other treatment groups, on day 14 of the study and their splenocytes assayed for target-specific killing of the P815 cells.
The average kill observed for the untreated group was about 45% at an effector to target ratio of 100:1. […] The timing of the drug administration was selected to ensure that the T cells were fully activated prior to the drug treatment. The third group was treated with propanolol, a 5HT-1 antagonist. All of the 5HT receptor antagonist-treated groups were treated as described for the risperidone-treated group. The fourth group was treated chronically with CyclosporinA. The Cyclosporin A was administered ip at a dosage of 100 μg/injection starting two days prior to the onset of the study, i.e., at day-2, and the injections were continued on a daily basis for the duration of the study.
Finally, studies conducted in vivo using the CD8-dependent allograft rejection model, in which P815 cells (a rapidly growing cell line taken from a mastocytoma in a DBA mouse), were expanded and used to create a robust rejection response in a C57BL6 mouse. In this study the mice received 5×10^6 P815 cells injected into their peritoneal cavity on day 0 of the study. The first group was an untreated control group (naïve animals), used to acquire the baseline response of the mice against the allogeneic stimulus. The positive controls were treated with the allogeneic cells without any further treatments. These animals were used to assess the induced allogeneic response against the P815 cells.
All treatment groups were sacrificed on day 14 of the study and their splenocytes assayed for target-specific killing of the P815 cells (the averaged overall kill observed for the positive control group was about 45% at an effector to target ratio of 100:1). The serotonin-specific compounds were administered via tail vein injection (300 μg/injection) on days 5 and 7 of the study. […]

Experiment [3] concerns RPMI 8226 multiple myeloma cells. In words: RPMI 8226 cell proliferation / viability (trypan blue, MTT, 3H-thymidine). It counts as cell-based, human. The settings on record: low dose-titration, FIGS. 23, 24 and 25. The method, then:
The human plasmacytoma (multiple myeloma) cell line, RPMI 8226 (American Type Culture Collection, Manassas, Va.), was cultured in RPMI 1640 supplemented with 10 mM HEPES, 1 mM sodium pyruvate, 4.5 g/L glucose, 1.5 g/L bicarbonate and 20% FBS (non-heat inactivated).
Cell proliferation was assayed by three methods—Trypan Blue Exclusion was used to quantify the number of viable cells in culture; 3-(4,5-dimethylthiazol-2-yl)-2,5-diphenyl tetrazolium bromide (MTT) reduction was used to assay mitochondrial activity (and thus cell viability); and ^3H-Thymidine uptake was employed to assay for active DNA synthesis.
The following 5-HT receptor modulating compounds were tested for their effects on RPMI 8226 cells in vitro cultured at the described densities and across the indicated concentration ranges.

Experiment [4] relates to human lymphocytes. Nature of the experiment: Human mixed lymphocyte reaction (allogeneic stimulation). Format: cell-based. The settings on record: harvested 120 hours. The text has this:
Blood from two healthy, non-related, donors was taken as described above. Peripheral blood mononuclear cells were isolated as described previously elsewhere. The adherent cells were separated from the suspension cells as described previously for both donors. Suspension cells from both donors (donors A and B) were used as responders. The remaining adherent cells from each of the donors were used as stimulators against a different donor (suspension A against adherent B and adherent A against suspension B). The stimulator cells were irradiated at 35 Gy. Drugs were pre-plated onto 96 well, U-bottom plates in triplicate. 200,000 “stimulator” cells in RPMI supplemented with 10% human serum were then plated in each well. 200,000 “responder” cells in the same medium were then plated over stimulators to a final volume of 200 μl/well. Background controls received either no stimulator cells, or no responder cells. The plates were incubated at 37° C. and 5% CO2. 1 μCi of tritiated thymidine was added to each well after 4.5 days, and the plates were harvested 12 hours later.

The subject of experiment [5] is human lymphocytes. In words: Human mitogenic (ConA) stimulation, 3H-thymidine incorporation. Format: cell-based. Particulars: harvested 72 hours. How it is done:
Blood from healthy volunteers was drawn using venipuncture, using Vacutainer collection sets and heparinized collection vials. The blood was diluted 1:1 using HBSS to a total volume of 30 ml in 50 ml conical tubes (Fisher Scientific, Co., Pittsburgh, Pa.). […] Cells from the buffy coats were collected and the residual Histopaque was washed away using repeated centrifugations in HBSS. After washes, cells were resuspended at 5 million cells per ml in RPMI, supplemented with 2% FBS. To remove adherent cells, the suspension was plated onto a 6 well flat-bottom plate (Corning Costar), 3 ml/well, and incubated for 2 hours at 37° C., 5% CO2. Non-adherent cells were harvested after this incubation, were counted and resuspended in RPMI supplemented with 10% human serum (Sigma).
All drugs were pre-plated before the cell suspension was added onto each well of a 96-well round-bottom plate. All experimental conditions were assayed in at least triplicate. Cells suspended in RPMI supplemented with 10% human serum were plated at 100,000 cells per well to a final volume of 200 μl. […] Control samples received no ConA stimulation. The plates were incubated at 37° C. and 5% CO2. One microCurie of tritiated thymidine was added to each well after 60 hours, and the plates were harvested 12 hours later.

The subject of the next experiment is cells. Nature of the experiment: Cell morphology change on inhibition of serotonergic signalling. It counts as cell-based. The settings on record: after 24 hours of treatment, FIG. 30. How it is done:
Briefly, cells were incubated with a 5-HTR antagonist (e.g., a selective type 1B inhibitor SD 216641) and the effects of treatment were assessed after 24 hours. […] For instance, detection of cell changes can be assessed using optical instruments (electron and light microscopy, as well as fluorescence activated cell sorting, and the like), or any other device that assesses and detects changes in cell size, density, morphology, and the like. Such devices are well known in the art and are not recounted here.

A further experiment deals with RPMI-8226 cells. Nature of the experiment: Hematoxylin-eosin / bis-benzamide staining of RPMI-8226 cytospins. Format: cell-based, human. The method, then: 2.0×10^5 RPMI-8226 cells were cultured, in 6-well culture plates, in the presence of the indicated drug concentrations, in a total of 5 mL RPMI-1640 supplemented with 10% FBS. Each well was harvested in its entirety and divided into two identical samples for cytospins.
1.0×10^5 RPMI-8226 cells from each treatment group were loaded into Cyto-funnels and centrifuged at 500 rpm for 4 minutes with medium acceleration. Slides were then fixed through graded methanol in PBS (100%, 5 minutes; 80%, 5 minutes; 50%, 5 minutes), washed for 5 minutes in PBS and stored in PBS at 4° C. until stained.
Cytospun slides were stained with Hematoxylin and Eosin, followed by the nuclear stain, bis-benzamide, rinsed and mounted according to standard staining protocols. Slides were visualized under both brightfield and fluorescent light to generate matched images of the same slide field (see, e.g., FIGS. 28 and 29).

On to `Cc1nc2n(c(=O)c1CCN1CCC(c3noc4cc(F)ccc34)CC1)CCCC2` [risperidone], for which the “effect on number of viable cells” value in the experiment on human lymphocytes [1] is listed as “caused a brief cell increase, followed by the elimination of the cells in culture”. In addition, the “effect on allograft (CTL) response” value in experiment [2] is “inhibited the allograft response to varying degrees”.

Consider `COc1ccc(NC(=O)c2ccc(-c3ccc(-c4noc(C)n4)cc3C)cc2)cc1OCCN(C)C` [SB 216641], for which, in experiment [3], the “effect on growth of RPMI-8226 cells” value is “completely inhibited the growth of the cancer cells”. Besides, the “effect on activation / proliferative response” value was “complete inhibition of the activation response” with human lymphocytes [4] (allogeneic stimulation, FIGS. 7B, 8B, 9B) and “complete inhibition of the activation response” in the experiment on human lymphocytes [5] (ConA 5 μg/ml, FIGS. 7A, 8A, 9A). Moreover, the pIC50 in the experiment with human lymphocytes [4] (allogeneic stimuli (mixed lymphocyte reaction), FIG. 7B, read-out: apparent IC50) was around 7.30; in the experiment with human lymphocytes [5] (ConA (5 μg/ml) stimulation of human lymphocytes, FIG. 7A, read-out: apparent IC50) it was around 6.70. The “change in cell morphology” value with cells is “an increase in cell size”. Besides, the “chromatin / nuclear morphology” value with RPMI-8226 cells (50 μM, 9 hour treatment, FIGS. 28, 29) was “Extensive chromatin condensation and nuclear fragmentation”. Moreover, the “induction of programmed cell death” value in the experiment on RPMI-8226 cells (FIGS. 28 and 29) was “induced programmed cell death comparable to that induced by the topoisomerase I inhibitor, camptothecin”.

Turning to `CC(C)NC[C@H](O)COc1cccc2ccccc12` (racemic) [propanolol], the “effect on number of viable cells” value in the experiment on human lymphocytes [1] is reported as “prevents the cell from growing”. In addition, the “effect on allograft (CTL) response” value in experiment [2] is on record as “did not protect the mice from the allograft rejection response”.

For orientation: pIC50 means the negative decadic logarithm of the IC50, by convention in mol/L.
